Laboratory results: ChEMBL document CHEMBL1148570, “Acryloylamino-salicylanilides as EGFR PTK inhibitors” (Bioorg Med Chem Lett, 2006)

Experiments:
[1] = target: Epidermal growth factor receptor (Homo sapiens) (UniProt P00533); experiment: Inhibition of EGFR PTK at 0.1 uM
[2] = target: Epidermal growth factor receptor (Homo sapiens) (UniProt P00533); experiment: Inhibition of EGFR PTK at 10 uM
[3] = target: Epidermal growth factor receptor (Homo sapiens) (UniProt P00533); experiment: Inhibition of EGFR PTK at 1 uM
[4] = target: Epidermal growth factor receptor (Homo sapiens) (UniProt P00533); experiment: Inhibition of EGFR PTK at 0.01 uM

Epidermal growth factor receptor (Homo sapiens), sequence (P00533 whole entry): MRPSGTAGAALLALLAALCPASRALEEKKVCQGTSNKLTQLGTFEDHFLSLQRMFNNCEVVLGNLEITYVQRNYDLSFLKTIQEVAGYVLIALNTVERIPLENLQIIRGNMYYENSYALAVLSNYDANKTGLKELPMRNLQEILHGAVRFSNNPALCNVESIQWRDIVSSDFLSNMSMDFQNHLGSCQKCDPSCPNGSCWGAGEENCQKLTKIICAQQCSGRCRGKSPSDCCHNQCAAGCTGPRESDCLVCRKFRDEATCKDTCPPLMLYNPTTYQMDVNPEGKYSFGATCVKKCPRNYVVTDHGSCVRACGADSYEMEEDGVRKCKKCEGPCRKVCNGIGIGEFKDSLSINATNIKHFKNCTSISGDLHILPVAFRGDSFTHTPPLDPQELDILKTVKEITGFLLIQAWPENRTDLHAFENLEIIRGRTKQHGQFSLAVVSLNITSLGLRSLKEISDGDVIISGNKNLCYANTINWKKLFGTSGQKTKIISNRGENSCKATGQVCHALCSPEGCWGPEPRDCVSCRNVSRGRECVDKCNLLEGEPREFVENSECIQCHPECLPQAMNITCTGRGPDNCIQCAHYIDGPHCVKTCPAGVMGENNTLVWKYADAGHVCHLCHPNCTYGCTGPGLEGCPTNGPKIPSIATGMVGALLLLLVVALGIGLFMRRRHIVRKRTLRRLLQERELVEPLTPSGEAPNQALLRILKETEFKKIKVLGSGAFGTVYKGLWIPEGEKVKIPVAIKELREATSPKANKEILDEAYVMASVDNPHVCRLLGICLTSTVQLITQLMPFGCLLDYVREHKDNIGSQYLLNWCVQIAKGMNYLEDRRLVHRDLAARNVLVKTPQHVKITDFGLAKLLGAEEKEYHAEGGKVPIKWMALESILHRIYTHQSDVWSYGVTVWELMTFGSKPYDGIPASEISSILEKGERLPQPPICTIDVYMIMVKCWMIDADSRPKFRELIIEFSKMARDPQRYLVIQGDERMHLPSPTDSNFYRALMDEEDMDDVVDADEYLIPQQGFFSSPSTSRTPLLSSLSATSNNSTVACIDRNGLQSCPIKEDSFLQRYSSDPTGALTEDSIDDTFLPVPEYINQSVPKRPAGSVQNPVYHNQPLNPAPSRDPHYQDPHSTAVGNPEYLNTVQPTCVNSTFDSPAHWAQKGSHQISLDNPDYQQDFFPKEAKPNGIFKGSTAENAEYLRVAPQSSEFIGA

Row | Compound | inhibition [1] | inhibition [2] | inhibition [3] | inhibition [4]
1 | CCC(=O)Nc1ccc(C(=O)Nc2cccc(C(=O)N(CC)CC)c2)c(O)c1 |  | 46.6% |  | 
2 | C=CC(=O)Nc1ccc(C(=O)Nc2cccc(C(=O)N3CCCC3)c2)c(O)c1 | 84.2% | 91% | 88.6% | 26%
3 | C=CC(=O)Nc1ccc(C(=O)Nc2cccc(C(=O)N3CCCCC3)c2)c(O)c1 | 88% | 91.9% | 91.2% | 75.1%
4 | C=CC(=O)Nc1ccc(C(=O)Nc2cccc(Cl)c2)c(O)c1 | 21.6% | 62.6% | 46.3% | 
5 | CCC(=O)Nc1ccc(C(=O)Nc2ccc(Oc3ccccc3)cc2)c(O)c1 |  | 48.5% |  | 
6 | C=CC(=O)Nc1ccc(C(=O)Nc2cccc(C(=O)N(CC)CC)c2)c(O)c1 | 40.4% | 63.9% | 54.4% | 14.1%
7 | C=CC(=O)Nc1ccc(O)c(C(=O)Nc2cccc(Cl)c2)c1 | 23.3% | 73.1% | 38.3% | 
8 | C=CC(=O)Nc1ccc(O)c(C(=O)Nc2cccc(Br)c2)c1 | 89.5% | 93% | 90.6% | 52.9%
9 | C=CC(=O)Nc1ccc(C(=O)Nc2cccc(Br)c2)c(O)c1 | 88.2% | 91.3% | 89.9% | 76%

Results, then the compound that gave them:

Row | inhibition [1] | inhibition [2] | inhibition [3] | inhibition [4] | Compound
10 | 86.6% | 91.2% | 89.3% | 18.8% | C=CC(=O)Nc1ccc(C(=O)Nc2cccc(Oc3ccccc3)c2)c(O)c1
11 |  | 1.59% |  |  | C=CC(=O)Nc1ccc(C(=O)Nc2cccc(Oc3ccccc3)c2)c(OC)c1
12 | 0.8% | 62.2% | 28.1% | 0% | C=CC(=O)Nc1ccc(C(=O)Nc2ccc(Oc3ccccc3)cc2)c(O)c1
13 | 84.8% | 93.5% | 91.7% | 49.3% | C=CC(=O)Nc1ccc(C(=O)Nc2cccc(C(O)c3ccccc3)c2)c(O)c1 (configuration not stated)
14 |  | 5.84% |  |  | C=CC(=O)Nc1ccc(C(=O)Nc2cccc(C(O)c3ccccc3)c2)c(OC)c1 (configuration not stated)
